From US8883124B2, “Use of fullerenes in photoacoustic imaging” (University of Florida Research Foundation, Inc., priority 2007, dated 2014)

Key:
mouse tumor = assay: In vivo PAT of mouse tumor after intratumoral injection
Procedure: In vivo experiments were carried with mouse tumor model. Six to eight week old BALB/c nude mice (CAnN.Cg-Foxn1nu/Crl) were purchased from Charles River and acclimated for 7 to 10 days. Supplemental estrogen (2 μg of 17β-estradiol valerate/week) was placed subcutaneously at least 1 week prior to tumor implantation. Mice were subcutaneously inoculated with 2×10^7 BT474 cells on the abdominal wall. Experiments were conducted 7-10 days following implantation, after the tumors had reached approximately 10 mm in size.
A volume of 30 μL of nanoparticle suspension (10 mg/mL for PHF and 0.45 mg/mL for CP-0.25) was injected into the mouse tumor. The mouse was placed in the water tank on an inclined plane with its head above the water surface. The PAT instrumentation for in vivo experiments was similar to that described for in vitro experiments, except that acoustic signals were collected over 300° range, giving a total of 100 measurements for each trial. PAT images of mouse tumor were obtained before and after injecting nanoparticles.

Water solubility = assay type: physicochemical

water solubility (Water solubility): water-soluble
Substance: Polyhydroxy fullerenes [PHF]
PAT signal in the region of the tumor after injection (mouse tumor; mouse tumor (BT474, BALB/c nude mice), intratumoral injection of 30 μL of 10 mg/mL, before vs after): large increase in PAT signal
contrast with the tumor and surrounding non-tumoral tissue in vivo using PAT (mouse tumor; mouse tumor, 30 μL intratumoral, 10 mg/mL for PHF and 0.45 mg/mL for CP-0.25): excellent contrast
